Assay results reported in ChEMBL document CHEMBL3272053, “(exo, exo)-2-Aryltropane-3-carboxylic esters, hypoglycemic agents with accompanying analgesic activity” (J Med Chem, 1978).

Tests used:
Rattus norvegicus [1] = assay: Toxicity in morphine-treated Sprague-Dawley rat assessed as catalepsy at 32 mg/kg, po administered 15 mins prior to testing; assay type: organism-based; parameters: dose 32 mg/kg, route oral; conditions: in vivo, 0.25 h
Canis familiaris [2] = assay: Toxicity in dog assessed as reduction of pulmonary ventilation rate at 100 mg/kg, im measured within 5 mins; assay type: organism-based, Canis lupus familiaris; parameters: dose 100 mg/kg, route intramuscular; scale not given: the % may be the effect or the level left; conditions: in vivo
[3] = Drug metabolism in glucose loaded Sprague-Dawley rat urine assessed as formation of (7)- (exo,exo)-methyl 2-(thiophen-2-yl)-8-azabicyclo[3.2.1]octane-3-carboxylate hydrochloride at 20 mg, po administered 3 to 6 hrs measured for 24 hrs by TLC/mass spectrographic analysis; assay type: ADME, organism-based; conditions: in vivo
Canis familiaris [4] = assay: Toxicity in dog assessed as reduction of pulmonary ventilation rate at 100 mg/kg, im measured within 20 mins relative to control; assay type: organism-based, Canis lupus familiaris; parameters: dose 100 mg/kg, route intramuscular; scale not given: the % may be the effect or the level left; conditions: in vivo
Rattus norvegicus [5] = assay: Hypoglycemic activity in glucose loaded Sprague-Dawley rat assessed as reduction of blood glucose level at 88 mg/kg, po measured at 1.5 hrs relative to control; assay type: functional; parameters: scale not given: the % may be the effect or the level left
Mus musculus [6] = assay: Toxicity in po dosed Swiss-Webster mouse assessed as stimulation of straub tail after 15 to 25 mins; assay type: organism-based; conditions: in vivo
Rattus norvegicus [7] = assay: Hypoglycemic activity in glucose loaded Sprague-Dawley rat assessed as reduction of blood glucose level at 88 mg/kg, po measured at 1 hr relative to control; assay type: functional; parameters: scale not given: the % may be the effect or the level left
Rattus norvegicus [8] = assay: Toxicity in Sprague-Dawley rat assessed as induction of morphine physical dependence by measuring occurrence of abstinence signs at 32 times of morphine dose 12.5 mg/kg/24 hrs administered on day 6 post morphine withdrawal; assay type: organism-based; conditions: in vivo
Rattus norvegicus [9] = assay: Hypoglycemic activity in glucose/glycogen loaded Sprague-Dawley rat assessed as reduction of glucose level per 100 mL of blood at 88 mg/kg, po measured at 2 hrs (reference value: 102 +/- 7 mg/100 mL); assay type: functional
Mus musculus [10] = assay: Toxicity in Swiss-Webster mouse assessed as mortality at 75 mg/kg, sc; assay type: organism-based; parameters: dose 75 mg/kg, route subcutaneous; conditions: in vivo
Rattus norvegicus [11] = assay: Narcotic analgesic activity in sc dosed fed Sprague-Dawley rat measured at 30 mins by D'Amour-Smith tail-flick test; assay type: functional
Mus musculus [12] = assay: Analgesic activity in sc dosed Swiss-Webster mouse assessed as reduction of acetylcholine-induced writhing; assay type: functional; conditions: Mus musculus, Swiss-Webster, sc; read-out: ED50
Rattus norvegicus [13] = assay: Narcotic analgesic activity in po dosed fasted Sprague-Dawley rat measured at 60 mins by D'Amour-Smith tail-flick test; assay type: functional; conditions: Rattus norvegicus, Sprague-Dawley, Tail, po, 1 h; read-out: ED50
Canis familiaris [14] = assay: Toxicity in dog assessed as effect on pulmonary ventilation rate at 150 mg/kg, im measured after 4 hrs; assay type: organism-based, Canis lupus familiaris; parameters: dose 150 mg/kg, route intramuscular; conditions: in vivo
Canis familiaris [15] = assay: Toxicity in dog assessed as respiratory depression at 150 mg/kg, im; assay type: organism-based, Canis lupus familiaris; parameters: dose 150 mg/kg, route intramuscular; conditions: in vivo
Rattus norvegicus [16] = assay: Toxicity in Sprague-Dawley rat assessed as induction of physical dependence by measuring occurrence of abstinence signs administered as infusion at 0.3 log interval doses up to maximum tolerated dose 800 mg/kg/24 hrs, ip for 6 days prior to abrupt withdrawal; assay type: organism-based; parameters: route intraperitoneal; conditions: in vivo
Rattus norvegicus [17] = assay: Hypoglycemic activity in fasted Sprague-Dawley rat assessed as reduction of blood glucose level at 50 mg/kg, po measured at 2 hrs relative to control; assay type: functional; parameters: scale not given: the % may be the effect or the level left
Mus musculus [18] = assay: Analgesic activity in po dosed Swiss-Webster mouse assessed as reduction of acetylcholine-induced writhing; assay type: functional
Canis familiaris [19] = assay: Toxicity in nalorphine-treated dog assessed as stopped breathing at 100 mg/kg, im measured after 3 mins; assay type: organism-based, Canis lupus familiaris; parameters: dose 100 mg/kg, route intramuscular; conditions: in vivo, 0.05 h
Rattus norvegicus [20] = assay: Toxicity in po dosed Sprague-Dawley rat assessed as catalepsy administered 15 mins prior to testing; assay type: organism-based; conditions: in vivo, 0.25 h
Rattus norvegicus [21] = assay: Hypoglycemic activity in glucose loaded Sprague-Dawley rat assessed as reduction of blood glucose level at 50 mg/kg, po measured at 1.5 hrs relative to control; assay type: functional; parameters: scale not given: the % may be the effect or the level left
Rattus norvegicus [22] = assay: Hypoglycemic activity in glucose/glycogen loaded Sprague-Dawley rat assessed as reduction of blood glucose level at 88 mg/kg, po measured at 0.5 hrs relative to control; assay type: functional; parameters: scale not given: the % may be the effect or the level left
Rattus norvegicus [23] = assay: Toxicity in Sprague-Dawley rat assessed as severe convulsion at 240 mg/kg, sc; assay type: organism-based; parameters: dose 240 mg/kg, route subcutaneous; conditions: in vivo
Rattus norvegicus [24] = assay: Hypoglycemic activity in glucose loaded Sprague-Dawley rat assessed as reduction of glucose level per 100 mL of blood at 88 mg/kg, po measured at 2 hrs (reference value: 99 +/- 2 mg/100 mL); assay type: functional
Rattus norvegicus [25] = assay: Hypoglycemic activity in glucose loaded Sprague-Dawley rat assessed as reduction of glucose level per 100 mL of blood at 50 mg/kg, po measured at 0.5 hrs (reference value: 176 +/- 8 mg/100 mL); assay type: functional
Canis familiaris [26] = assay: Toxicity in nalorphine-treated dog assessed as reduction of pulmonary ventilation rate at 100 mg/kg, im measured within 5 mins; assay type: organism-based, Canis lupus familiaris; parameters: dose 100 mg/kg, route intramuscular; conditions: in vivo
Rattus norvegicus [27] = assay: Hypoglycemic activity in fasted Sprague-Dawley rat assessed as reduction of blood glucose level at 88 mg/kg, po measured at 0.5 hrs relative to control; assay type: functional; parameters: scale not given: the % may be the effect or the level left
Rattus norvegicus [28] = assay: Narcotic analgesic activity in po dosed fasted Sprague-Dawley rat measured at 15 mins by D'Amour-Smith tail-flick test; assay type: functional; conditions: 0.25 h
Rattus norvegicus [29] = assay: Hypoglycemic activity in fasted Sprague-Dawley rat assessed as reduction of blood glucose level at 50 mg/kg, po measured at 0.5 hrs relative to control; assay type: functional; parameters: scale not given: the % may be the effect or the level left
Rattus norvegicus [30] = assay: Hypoglycemic activity in fasted Sprague-Dawley rat assessed as reduction of blood glucose level at 88 mg/kg, po measured at 1 hr relative to control; assay type: functional; parameters: scale not given: the % may be the effect or the level left
Rattus norvegicus [31] = assay: Hypoglycemic activity in fasted Sprague-Dawley rat assessed as reduction of blood glucose level at 88 mg/kg, po measured at 1.5 hrs relative to control; assay type: functional; parameters: scale not given: the % may be the effect or the level left
Canis familiaris [32] = assay: Toxicity in nalorphine-treated dog assessed as reduction of pulmonary ventilation rate at 100 mg/kg, im measured within 1 min; assay type: organism-based, Canis lupus familiaris; parameters: dose 100 mg/kg, route intramuscular; conditions: in vivo
Rattus norvegicus [33] = assay: Hypoglycemic activity in glucose/glycogen loaded Sprague-Dawley rat assessed as reduction of blood glucose level at 88 mg/kg, po measured at 1.5 hrs relative to control; assay type: functional; parameters: scale not given: the % may be the effect or the level left
Canis familiaris [34] = assay: Toxicity in dog assessed as stopped breathing at 100 mg/kg, im measured after 3 mins; assay type: organism-based, Canis lupus familiaris; parameters: dose 100 mg/kg, route intramuscular; conditions: in vivo, 0.05 h
Rattus norvegicus [35] = assay: Toxicity in Sprague-Dawley rat assessed as catalepsy at 32 mg/kg, po administered 15 mins prior to testing; assay type: organism-based; parameters: dose 32 mg/kg, route oral; conditions: in vivo, 0.25 h
Rattus norvegicus [36] = assay: Toxicity in Sprague-Dawley rat assessed as induction of physical dependence by measuring occurrence of abstinence signs at 100 mg/kg/24 hrs, ip administered as 2 days of infusion prior to naloxone-precipitated withdrawal; assay type: organism-based; parameters: route intraperitoneal; conditions: in vivo
Rattus norvegicus [37] = assay: Hypoglycemic activity in glucose/glycogen loaded Sprague-Dawley rat assessed as reduction of blood glucose level at 88 mg/kg, po measured at 1 hr relative to control; assay type: functional; parameters: scale not given: the % may be the effect or the level left
Rattus norvegicus [38] = assay: Hypoglycemic activity in glucose loaded Sprague-Dawley rat assessed as reduction of blood glucose level at 50 mg/kg, po measured at 1 hr relative to control; assay type: functional; parameters: scale not given: the % may be the effect or the level left
Rattus norvegicus [39] = assay: Toxicity in Sprague-Dawley rat assessed as catalepsy at 32 mg/kg, po administered 15 mins prior to testing in presence of naloxone hydrochloride; assay type: organism-based; parameters: dose 32 mg/kg, route oral; conditions: in vivo, 0.25 h
Rattus norvegicus [40] = assay: Hypoglycemic activity in fasted Sprague-Dawley rat assessed as reduction of blood glucose level at 50 mg/kg, po measured at 1 hr relative to control; assay type: functional; parameters: scale not given: the % may be the effect or the level left
Mus musculus [41] = assay: Toxicity in naloxone hydrochloride-treated Swiss-Webster mouse assessed as stimulation of straub tail at 300 mg/kg, po after 15 to 25 mins; assay type: organism-based; parameters: dose 300 mg/kg, route oral; conditions: in vivo
Rattus norvegicus [42] = assay: Hypoglycemic activity in Sprague-Dawley rat assessed as reduction of blood glucose level at 88 mg/kg, po by glucagon-impaired glucose disposal test relative to control; assay type: functional; parameters: scale not given: the % may be the effect or the level left; conditions: 88 mg/kg
Rattus norvegicus [43] = assay: Hypoglycemic activity in glucose loaded Sprague-Dawley rat assessed as reduction of blood glucose level at 50 mg/kg, po measured at 2 hrs relative to control; assay type: functional; parameters: scale not given: the % may be the effect or the level left
Rattus norvegicus [44] = assay: Hypoglycemic activity in fasted Sprague-Dawley rat assessed as reduction of blood glucose level at 50 mg/kg, po measured at 1.5 hrs relative to control; assay type: functional; parameters: scale not given: the % may be the effect or the level left
Rattus norvegicus [45] = assay: Hypoglycemic activity in glucose loaded Sprague-Dawley rat assessed as reduction of blood glucose level at 88 mg/kg, po measured at 0.5 hrs relative to control; assay type: functional; parameters: scale not given: the % may be the effect or the level left
Rattus norvegicus [46] = assay: Hypoglycemic activity in fasted Sprague-Dawley rat assessed as reduction of blood glucose level at 88 mg/kg, po measured at 2 hrs relative to control; assay type: functional; parameters: scale not given: the % may be the effect or the level left

Q: Which Activity (Rattus norvegicus [1]) does the source give for COC(=O)[C@H]1C[C@H]2CC[C@H]([C@H]1c1cccs1)N2C.Cl (racemic) here?
A: 20%

Q: What about the Activity (Canis familiaris [2]) of the same molecule?
A: 65%

Q: And the Drug metabolism [3]?
A: metabolite_detected

Q: And the Activity (Canis familiaris [4])?
A: 40%

Q: What about the Activity (Rattus norvegicus [5]) of the same molecule?
A: 32%

Q: And the ED50 (Mus musculus [6])?
A: 138 mg/kg

Q: And the Activity (Rattus norvegicus [7])?
A: 55%

Q: What about the Activity (Rattus norvegicus [8]) of the same molecule?
A: Non-toxic

Q: What about the Activity (Rattus norvegicus [9]) of the same molecule?
A: 104 mg

Q: What about the Activity (Mus musculus [10]) of the same molecule?
A: Non-toxic

Q: What about the ED50 (Rattus norvegicus [11]) of the same molecule?
A: 100 mg/kg

Q: What about the ED50 (Mus musculus [12]) of the same molecule?
A: 12 mg/kg

Q: What about the ED50 (Rattus norvegicus [13]) of the same molecule?
A: 83 mg/kg

Q: What about the Activity (Canis familiaris [14]) of the same molecule?
A: Non-toxic

Q: And the Activity (Canis familiaris [15])?
A: Non-toxic

Q: And the Activity (Rattus norvegicus [16])?
A: Non-toxic

Q: What about the Activity (Rattus norvegicus [17]) of the same molecule?
A: 37%

Q: And the ED50 (Mus musculus [18])?
A: 35 mg/kg

Q: And the Activity (Canis familiaris [19])?
A: Non-toxic

Q: What about the ED50 (Rattus norvegicus [20]) of the same molecule?
A: 18.6 mg/kg

Q: What about the Activity (Rattus norvegicus [21]) of the same molecule?
A: 53%

Q: And the Activity (Rattus norvegicus [22])?
A: 62%

Q: What about the Activity (Rattus norvegicus [23]) of the same molecule?
A: Toxic

Q: What about the Activity (Rattus norvegicus [24]) of the same molecule?
A: 100 mg

Q: And the Activity (Rattus norvegicus [25])?
A: 172 mg

Q: What about the Activity (Canis familiaris [26]) of the same molecule?
A: Non-toxic

Q: What about the Activity (Rattus norvegicus [27]) of the same molecule?
A: 45%

Q: What about the ED50 (Rattus norvegicus [28]) of the same molecule?
A: 29 mg/kg

Q: What about the Activity (Rattus norvegicus [29]) of the same molecule?
A: 34%

Q: What about the Activity (Rattus norvegicus [30]) of the same molecule?
A: 38%

Q: And the Activity (Rattus norvegicus [31])?
A: 27%

Q: What about the Activity (Canis familiaris [32]) of the same molecule?
A: Non-toxic

Q: And the Activity (Rattus norvegicus [33])?
A: 22%

Q: What about the Activity (Canis familiaris [34]) of the same molecule?
A: Non-toxic

Q: And the Activity (Rattus norvegicus [35])?
A: 65%

Q: What about the Activity (Rattus norvegicus [36]) of the same molecule?
A: Non-toxic

Q: And the Activity (Rattus norvegicus [37])?
A: 38%

Q: And the Activity (Rattus norvegicus [38])?
A: 40%

Q: What about the Activity (Rattus norvegicus [39]) of the same molecule?
A: Non-toxic

Q: What about the Activity (Rattus norvegicus [40]) of the same molecule?
A: 40%

Q: What about the Activity (Mus musculus [41]) of the same molecule?
A: Non-toxic

Q: What about the Activity (Rattus norvegicus [42]) of the same molecule?
A: 63%

Q: What about the Activity (Rattus norvegicus [43]) of the same molecule?
A: 50%

Q: And the Activity (Rattus norvegicus [44])?
A: 43%

Q: And the Activity (Rattus norvegicus [45])?
A: 55%

Q: And the Activity (Rattus norvegicus [46])?
A: 24%
